Data reported in US10363239B2, “Method for inhibiting growth of cancer cells” (Pain Therapeutics, Inc., priority 2013, dated 2019).
Where two headings read alike, the source gives them in different places.

What was measured:
[1] = target: FLNA pentapeptide of SEQ ID NO: 1 (Bn-VAKGL) (Homo sapiens, UniProt P21333); assay: FITC-NLX-based FLNA screening assay (inhibition of FITC-naloxone binding to Bn-VAKGL on streptavidin plates); settings: 10 nM FITC-NLX
mu opiate receptor (MOR) = assay: MOR agonist activity using [35S]GTPγS binding assay in striatal membranes; type: biochemical; settings: for MOR agonist activity ([35S]GTPγS binding), FLNA-Binding Compound as Agonist 1 μM + BFNA: 1 μM compound + 1 μM β-funaltrexamine
Outline: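 Striatal membranes (200 μg) were preincubated 5 min at 30 °C in HEPES pH 7.5 with 100 mM NaCl, 1 mM MgCl2 and 0.5 nM [35S]GTPγS, then 5 min more with 0.1–10 μM compound. Gαo was immunoprecipitated and bound radioactivity counted by scintillation.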

[2] = read-out: Percent Binding Inhibition, FLNA-binding compound 0.01 μM
[3] = read-out: Percent Binding Inhibition, FLNA-binding compound 0.1 μM
[4] = read-out: Percent Binding Inhibition, FLNA-binding compound 1 μM
[5] = Series C-1, 0.1 μM compound, relative to DAMGO
[6] = Series C-1, 0.1 μM compound, [35S]GTPγS binding to Gαo, striatal membranes
[7] = Series C-1, 1 μM compound + 1 μM β-FNA
[8] = Series C-1, 1 μM compound + β-FNA, relative to DAMGO + BFNA
[9] = Series C-1, 1 μM compound, relative to DAMGO
[10] = Series C-1, 1 μM compound, [35S]GTPγS binding to Gαo, striatal membranes
[11] = Series B, 0.1 μM compound, relative to DAMGO
[12] = Series B, 0.1 μM compound, [35S]GTPγS binding to Gαo, striatal membranes
[13] = Series B, 1 μM compound + 1 μM β-FNA
[14] = Series B, 1 μM compound + β-FNA, relative to DAMGO + BFNA
[15] = Series B, 1 μM compound, relative to DAMGO
[16] = Series B, 1 μM compound, [35S]GTPγS binding to Gαo, striatal membranes
[17] = FLNA-binding compound 0.01 μM, read-out: Percent Binding Inhibition
[18] = FLNA-binding compound 0.1 μM, read-out: Percent Binding Inhibition
[19] = FLNA-binding compound 1 μM, read-out: Percent Binding Inhibition
[20] = 0.1 μM compound relative to DAMGO
[21] = 1 μM compound + BFNA relative to DAMGO + BFNA
[22] = 1 μM compound relative to DAMGO

SMILES | inhibition at 0.01 µM [1, 2] [%] | inhibition at 0.1 µM [1, 3] [%] | inhibition at 1 µM [1, 4] [%] | % DAMGO (0.1 μM) (mu opiate receptor (MOR); [5]) [%] | Concentration of FLNA-Binding Compound as Agonist 0.1 μM (mu opiate receptor (MOR); [6]) [%] | Concentration of FLNA-Binding Compound as Agonist 1 μM + BFNA (mu opiate receptor (MOR); [7]) [%] | % DAMGO + BFNA (mu opiate receptor (MOR); [8]) [%] | % DAMGO (1 μM) (mu opiate receptor (MOR); [9]) [%] | Concentration of FLNA-Binding Compound as Agonist 1 μM (mu opiate receptor (MOR); [10]) [%] | % DAMGO (0.1 μM) (mu opiate receptor (MOR); [11]) [%] | MOR agonist activity, percent [35S]GTPγS binding at the stated compound concentration (mu opiate receptor (MOR); [12]) [%] | MOR agonist activity, percent [35S]GTPγS binding at the stated compound concentration (mu opiate receptor (MOR); [13]) [%] | % DAMGO + BFNA (mu opiate receptor (MOR); [14]) [%] | % DAMGO (1 μM) (mu opiate receptor (MOR); [15]) [%] | MOR agonist activity, percent [35S]GTPγS binding at the stated compound concentration (mu opiate receptor (MOR); [16]) [%] | inhibition at 0.01 µM [1, 17] [%] | inhibition at 0.1 µM [1, 18] [%] | inhibition at 1 µM [1, 19] [%] | other results
CS(=O)(=O)c1ccc(S(=O)(=O)N2CCC3(CC2)OCCN3S(=O)(=O)c2ccc(S(C)(=O)=O)cc2)cc1 [Compound C0009] | 41.7 | 49 | 53.9 | 85.1 | 146.3 | 26.4 | 41.2 | 92.6 | 256.2 | – | – | – | – | – | – | – | – | – | –
COc1ccccc1CC(O)CC1c2c(cc3c(c2OC)OCO3)CC[N+]1(C)C (stereo not drawn) [Compound B0032] | 45.1 | 51.3 | 48.9 | – | – | – | – | – | – | 115.0 | 221.1 | 15.6 | 35.5 | 109.0 | 297.7 | – | – | – | –
CN(C)c1cccc(OCC(O)CN2CCc3ccccc3C2)c1 (stereo not drawn) [Compound A0050] | – | – | – | – | – | – | – | – | – | – | – | – | – | – | – | 42.9 | 49.8 | 52.1 | MOR agonist activity ([35S]GTPγS binding), FLNA-Binding Compound as Agonist 0.1 μM (mu opiate receptor (MOR); 0.1 μM compound): 151.0%; % DAMGO (0.1 μM) (mu opiate receptor (MOR); [20]): 77.0%; MOR agonist activity ([35S]GTPγS binding), FLNA-Binding Compound as Agonist 1 μM (mu opiate receptor (MOR); 1 μM compound): 189.3%; MOR agonist activity ([35S]GTPγS binding), FLNA-Binding Compound as Agonist 1 μM + BFNA (mu opiate receptor (MOR)): 81.0%; % DAMGO + BFNA (mu opiate receptor (MOR); [21]): 109.6%; % DAMGO (1 μM) (mu opiate receptor (MOR); [22]): 68.6%
COc1cc(OC)cc(C(=O)CC2c3c(cc4c(c3OC)OCO4)CC[N+]2(C)C)c1 (stereo not drawn) [Compound B0035] | 45.4 | 44.7 | 51 | – | – | – | – | – | – | 109.8 | 188.0 | 74.2 | 142.4 | 93.2 | 248.7 | – | – | – | –
O=S(=O)(c1ccc(Br)cc1F)N1CCC2(CC1)OCCN2S(=O)(=O)c1ccc(Br)cc1F [Compound C0078] | 46.6 | 48 | 50.5 | 82.4 | 138.1 | 170.7 | 359.4 | 106.4 | 236.6 | – | – | – | – | – | – | – | – | – | –
CC(C)c1ccc(S(=O)(=O)N2CCC3(CC2)OCCN3S(=O)(=O)c2ccc(C(C)C)cc2)cc1 [Compound C0007] | 40.5 | 46.3 | 48.9 | 46.0 | 79.1 | 10.9 | 17.0 | 70.5 | 195.0 | – | – | – | – | – | – | – | – | – | –
CC1CN(CC(O)COc2ccccc2Br)CC(C)O1 (stereo not drawn) [Compound A0043] | – | – | – | – | – | – | – | – | – | – | – | – | – | – | – | 46.4 | 48.9 | 51.8 | MOR agonist activity ([35S]GTPγS binding), FLNA-Binding Compound as Agonist 0.1 μM (mu opiate receptor (MOR); 0.1 μM compound): 183.3%; % DAMGO (0.1 μM) (mu opiate receptor (MOR); [20]): 93.4%; MOR agonist activity ([35S]GTPγS binding), FLNA-Binding Compound as Agonist 1 μM (mu opiate receptor (MOR); 1 μM compound): 223.8%; MOR agonist activity ([35S]GTPγS binding), FLNA-Binding Compound as Agonist 1 μM + BFNA (mu opiate receptor (MOR)): 89.1%; % DAMGO + BFNA (mu opiate receptor (MOR); [21]): 120.6%; % DAMGO (1 μM) (mu opiate receptor (MOR); [22]): 81.1%
COc1ccc(CCC(=O)CC2c3c(cc4c(c3OC)OCO4)CC[N+]2(C)C)cc1OC (stereo not drawn) [Compound B0042] | 40.8 | 46.4 | 51.6 | – | – | – | – | – | – | 39.6 | 69.9 | 43.1 | 163.9 | 42.3 | 107.5 | – | – | – | –
COc1ccc(S(=O)(=O)N2CCSC23CCNCC3)cc1 [S-C0027] | – | – | – | – | – | – | – | – | – | – | – | – | – | – | – | 39.1 | 46.5 | 53.6 | % DAMGO (0.1 μM) (mu opiate receptor (MOR); Series C-2, 0.1 μM compound, relative to DAMGO): 74.2%; MOR agonist activity, percent [35S]GTPγS binding at the stated compound concentration (mu opiate receptor (MOR); Series C-2, 0.1 μM compound, [35S]GTPγS binding to Gαo, striatal membranes): 156.2%; MOR agonist activity, percent [35S]GTPγS binding at the stated compound concentration (mu opiate receptor (MOR); Series C-2, 1 μM compound + 1 μM β-FNA): 56.2%; % DAMGO + BFNA (mu opiate receptor (MOR); Series C-2, 1 μM compound + β-FNA, relative to DAMGO + BFNA): 98.1%; % DAMGO (1 μM) (mu opiate receptor (MOR); Series C-2, 1 μM compound, relative to DAMGO): 84.4%; MOR agonist activity, percent [35S]GTPγS binding at the stated compound concentration (mu opiate receptor (MOR); Series C-2, 1 μM compound, [35S]GTPγS binding to Gαo, striatal membranes): 286.8%
